Assay results from US8288363B2, “Medicaments for anti-herpes virus treatments” (ASE & BIO, priority 2006, dated 2012).

Key:
Test in all cases: Anti-herpes activity, viability of infected vero cells (neutral red)
Details in all cases: incubation time 72 hours
[1] = system: HSV-1; type: cell-based, herpes simplex virus 1
Method: (§1) This method is based on the principle that living cells absorb neutral red, which is a vital stain. The optical density of the medium was measured at the maximum absorption wavelength of neutral red, that is to say 540 nm, using a spectrophotometer (SpectraCount™, microplate photometer, Packard). The optical density at 540 nm is proportional to the number of living cells in an infected culture (McLaren et al., Antiviral Research, 1983; 3: 223-234 and Langlois et al., Standardization, 1986, 14: 201-211).
(§2) The effective concentration (EC 50%), that is to say the concentration of the sulphated polysaccharide which enables infection of 50% of the cells of a culture to be inhibited, was measured for each viral strain.
(§3) The determination of the EC50 was carried out in 96-well microtitre plates in accordance with the following protocol. Vero cells are seeded at a cell density of 3.5·10^4 cells/well in 100 μl of MEM medium containing 8% FCS. For each viral suspension defined by its MOI: • the negative control column was filled with 100 μl of MEM medium with 8% FCS, • the virus control column was filled with 50 μl of viral suspension having the required MOI and with 50 μl of MEM medium with 8% FCS, • the PS3 control column was filled with 50 μl of PS3 having the desired concentration range or with 50 μl of acyclovir (Zovirax 0.05-5 μg/ml • finally, all the other columns were filled successively with 50 μl of PS3 having the required concentration range or with 50 μl of acyclovir (Zovirax 0.05-5 μg/ml) and with 50 μl of the viral suspension having the desired MOI.
(§4) The EC50 corresponding to the concentration which enables the cytopathic effect of the virus to be reduced by 50% was calculated in accordance with the following formula: […]
(§5) The anti-herpes activity of PS3 was evaluated and compared on each viral suspension of HSV-1, HSV-1R, HSV-2 and HSV-2R defined by an MOI of 0.01 ID50/cell for a cell concentration of 350,000 cells/ml, after incubation times of 48 and 72 hours.
(§6) This series of experiments was carried out applying the protocol enabling the EC50 to be determined, as described in Example 3.
(§7) The therapeutic indices (TI) of PS3, as well as three other reference products, that is to say acyclovir, dextran sulphate and phycarine, were determined in parallel for each viral strain.
(§8) The therapeutic index (TI) represents the ratio between the maximum non-toxic dose (or a dose inducing a quantified toxicity) and the dose inducing a favourable pharmacological effect.

[2] = system: acyclovir-resistant strain HSV-1R; type: cell-based, herpes simplex virus 1
Method: as §1, §2, §3, §4, §5, §6, §7, §8

[3] = system: HSV-2; type: cell-based, herpes simplex virus 2
Method: as §1, §2, §3, §4, §5, §6, §7, §8

[4] = system: acyclovir-resistant strain HSV-2R; type: cell-based, herpes simplex virus 2
Method: as §1, §2, §3, §4, §5, §6, §7, §8

dextran sulphate [reference compound]
Therapeutic index HSV-1 [1]: >868
Therapeutic index HSV-1R [2]: >641
Therapeutic index HSV-2 [3]: >3,571
Therapeutic index HSV-2R [4]: >4,545
